Measurements: patent US20230265151A1, “GIP/GLP1 CO-AGONIST COMPOUNDS” (priority 2020, published 2023)
Like-named read-outs stand apart in the source and are kept apart here.

Assays:
Type in all cases: cell-based
[1] = biological target: T1, hGIPR (Homo sapiens, UniProt P48546); assay: Functional cAMP formation (HTRF) in HEK-293 clonal cells expressing hGIPR, 0.1% bovine casein, without or with 1.0% human serum albumin; conditions: for EC50: geometric mean, read-out: hGIPR EC50, nM (SEM, n); for Emax: read-out: hGIPR Emax, % ± SEM
T1 construct: expressed in transfected cells
T1 sequence (P48546 22-466): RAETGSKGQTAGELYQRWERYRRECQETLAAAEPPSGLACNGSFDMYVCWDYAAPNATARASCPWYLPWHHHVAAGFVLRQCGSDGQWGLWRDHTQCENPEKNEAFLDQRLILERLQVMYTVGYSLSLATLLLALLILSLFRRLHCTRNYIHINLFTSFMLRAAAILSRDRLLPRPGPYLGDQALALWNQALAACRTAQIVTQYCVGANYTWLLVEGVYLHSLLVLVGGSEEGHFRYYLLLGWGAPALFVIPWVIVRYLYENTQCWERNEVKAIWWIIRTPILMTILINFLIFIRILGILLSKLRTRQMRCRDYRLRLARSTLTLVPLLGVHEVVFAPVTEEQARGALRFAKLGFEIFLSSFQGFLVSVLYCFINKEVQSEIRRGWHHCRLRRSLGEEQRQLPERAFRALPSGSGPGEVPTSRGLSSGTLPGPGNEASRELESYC
Outline: (§1)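 Cells were stimulated with peptide for 30 min at 37° C, then lysed in buffer carrying cAMP-d2 and anti-cAMP Eu3+-cryptate for a competitive HTRF read after at least 60 min at room temperature. The 665/620 nm ratio was converted to nM cAMP against a standard curve.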

[2] = biological target: hGLP-1R (Homo sapiens, UniProt P43220); assay: Functional cAMP formation (HTRF) in HEK-293 clonal cells expressing hGLP-1R, 0.1% bovine casein, without or with 1.0% human serum albumin; design: expressed in transfected cells; conditions: for EC50: geometric mean, read-out: hGLP-1R EC50, nM (SEM, n); for Emax: read-out: hGLP-1R Emax, % ± SEM
Chain of hGLP-1R (P43220 24-463): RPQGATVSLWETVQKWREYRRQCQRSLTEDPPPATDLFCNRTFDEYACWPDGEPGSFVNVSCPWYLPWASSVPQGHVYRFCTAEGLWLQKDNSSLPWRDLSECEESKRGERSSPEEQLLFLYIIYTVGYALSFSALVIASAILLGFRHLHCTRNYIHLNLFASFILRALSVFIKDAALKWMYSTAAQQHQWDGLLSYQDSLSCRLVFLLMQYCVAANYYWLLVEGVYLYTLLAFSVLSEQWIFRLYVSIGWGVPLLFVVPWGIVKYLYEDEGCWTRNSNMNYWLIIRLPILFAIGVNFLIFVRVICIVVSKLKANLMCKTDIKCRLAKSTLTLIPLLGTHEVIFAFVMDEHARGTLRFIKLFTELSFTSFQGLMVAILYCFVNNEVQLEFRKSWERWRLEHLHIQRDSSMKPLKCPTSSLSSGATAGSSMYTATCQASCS
Outline: as §1

[3] = biological target: T2, hGCGR (Homo sapiens, UniProt P47871); assay: Functional cAMP formation (HTRF) in HEK-293 clonal cells expressing hGCGR, 0.1% bovine casein, without or with 1.0% human serum albumin; conditions: geometric mean, read-out: hGCGR EC50, nM (SEM, n)
T2 construct: expressed in transfected cells
T2 sequence (P47871 26-477): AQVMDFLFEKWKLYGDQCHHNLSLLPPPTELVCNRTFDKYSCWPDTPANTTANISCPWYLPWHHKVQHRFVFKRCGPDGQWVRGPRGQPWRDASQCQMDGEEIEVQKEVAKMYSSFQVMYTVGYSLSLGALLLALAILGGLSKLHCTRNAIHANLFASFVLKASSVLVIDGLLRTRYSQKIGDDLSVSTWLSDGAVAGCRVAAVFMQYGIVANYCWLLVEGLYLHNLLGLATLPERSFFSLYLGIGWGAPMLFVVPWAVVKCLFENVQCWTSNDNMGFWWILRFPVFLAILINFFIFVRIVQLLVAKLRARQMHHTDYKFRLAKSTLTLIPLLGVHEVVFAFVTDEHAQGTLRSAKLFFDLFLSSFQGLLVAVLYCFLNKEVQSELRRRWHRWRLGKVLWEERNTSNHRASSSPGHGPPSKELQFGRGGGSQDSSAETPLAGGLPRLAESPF
Outline: as §1

[4] = 0.1% bovine casein and 1.0% human serum albumin, 37° C.
[5] = HEK293, 0.1% bovine casein and 1.0% human serum albumin, 37° C., percent of maximal response to GIP(1-42)NH2
[6] = HEK293, percent of maximal response to GIP(1-42)NH2, 37° C., 0.1% bovine casein, arithmetic mean
[7] = cAMP, incubated at 37° C., 0.1% bovine casein (no human serum albumin)
[8] = HEK293, 0.1% bovine casein and 1.0% human serum albumin, 37° C., percent of maximal response to GLP-1(7-36)NH2
[9] = HEK293, percent of maximal response to GLP-1(7-36)NH2, 37° C., 0.1% bovine casein, arithmetic mean

For `CC[C@H](C)[C@H](NC(=O)[C@H](CCCN)NC(=O)[C@H](CC(=O)O)NC(=O)[C@H](CC(C)C)NC(=O)[C@](C)(CC(C)C)NC(=O)[C@@H](NC(=O)[C@H](CO)NC(=O)[C@H](Cc1ccncc1)NC(=O)[C@H](CC(=O)O)NC(=O)[C@H](CO)NC(=O)[C@@H](NC(=O)[C@](C)(Cc1ccccc1F)NC(=O)[C@@H](NC(=O)CNC(=O)[C@H](CCC(=O)O)NC(=O)C(C)(C)NC(=O)[C@@H](N)Cc1ccc(O)cc1)[C@@H](C)O)[C@@H](C)O)[C@@H](C)CC)C(=O)N[C@@H](C)C(=O)N[C@@H](CCC(N)=O)C(=O)NC(C)(C)C(=O)N[C@@H](CCCCNC(=O)COCCOCCNC(=O)COCCOCCNC(=O)CCCCCCCCCCCCC(=O)O)C(=O)N[C@@H](Cc1ccccc1)C(=O)N[C@H](C(=O)N[C@H](CCC(=O)O)C(=O)N[C@@](C)(Cc1ccc(O)cc1)C(=O)N[C@@H](CC(C)C)C(=O)N[C@H](C(=O)N[C@@H](CCC(=O)O)C(=O)NCC(=O)NCC(=O)N[C@@H](CCCCNC(=O)COCCOCCNC(=O)COCCOCCNC(=O)CCCCCCCCCCCCC(=O)O)C(=O)N[C@@H](CO)C(=O)N[C@@H](CO)C(=O)NCC(=O)N[C@@H](C)C(=O)N1CCC[C@H]1C(=O)N1CCC[C@H]1C(=O)N1CCC[C@H]1C(=O)N[C@@H](CO)C(N)=O)[C@@H](C)CC)[C@@H](C)CC` [Example 195], the EC50 [1, 4] was 0.771 nM, the Emax [1, 5] was 87 ± 12.2% and the Emax [1, 6] was 88.5 ± 4.32%. For the same molecule, the EC50 [1, 7] was 0.0219 nM, the EC50 [2, 4] was 14 nM and the EC50 [2, 7] was 0.343 nM. It also gave an EC50 [3, 4] greater than 9950 nM and an EC50 [3, 7] greater than 9950 nM.

With `CC[C@H](C)[C@H](NC(=O)[C@H](CCCN)NC(=O)[C@H](CC(=O)O)NC(=O)[C@H](CC(C)C)NC(=O)[C@](C)(CC(C)C)NC(=O)[C@@H](NC(=O)[C@H](CO)NC(=O)[C@H](Cc1ccncc1)NC(=O)[C@H](CC(=O)O)NC(=O)[C@H](CO)NC(=O)[C@@H](NC(=O)[C@](C)(Cc1ccccc1F)NC(=O)[C@@H](NC(=O)CNC(=O)[C@H](CCC(=O)O)NC(=O)C(C)(C)NC(=O)[C@@H](N)Cc1ccc(O)cc1)[C@@H](C)O)[C@@H](C)O)[C@@H](C)CC)C(=O)N[C@@H](C)C(=O)N[C@@H](CCC(N)=O)C(=O)NC(C)(C)C(=O)N[C@@H](CCCCNC(=O)COCCOCCNC(=O)COCCOCCNC(=O)CCCCCCCCCCCCC(=O)O)C(=O)N[C@@H](Cc1ccccc1)C(=O)N[C@H](C(=O)N[C@H](CCC(=O)O)C(=O)N[C@@](C)(Cc1ccc(O)cc1)C(=O)N[C@@H](CC(C)C)C(=O)N[C@H](C(=O)N[C@@H](CCC(=O)O)C(=O)NCC(=O)NCC(=O)N1CCC[C@H]1C(=O)N[C@@H](CO)C(=O)N[C@@H](CO)C(=O)NCC(=O)N[C@@H](C)C(=O)N1CCC[C@H]1C(=O)N1CCC[C@H]1C(=O)N1CCC[C@H]1C(=O)N[C@@H](CO)C(=O)N[C@@H](CCCCNC(=O)COCCOCCNC(=O)COCCOCCNC(=O)CCCCCCCCCCCCC(=O)O)C(N)=O)[C@@H](C)CC)[C@@H](C)CC` [Example 196] the EC50 [1, 4] was 0.712 nM, the Emax [1, 5] was 80.8 ± 0.269% and the Emax [1, 6] was 96 ± 2.1%. The EC50 [1, 7] was 0.0232 nM, the EC50 [2, 4] was 21.4 nM and the Emax [2, 8] was 112 ± 4.62%. It also gave an Emax [2, 9] of 96.8 ± 2.59%, an EC50 [2, 7] of 0.356 nM and an EC50 [3, 4] greater than 9950 nM. The EC50 [3, 7] was greater than 9950 nM.

In the case of `CC[C@H](C)[C@H](NC(=O)[C@H](CCCN)NC(=O)[C@H](CC(=O)O)NC(=O)[C@H](CC(C)C)NC(=O)[C@](C)(CC(C)C)NC(=O)[C@@H](NC(=O)[C@H](CO)NC(=O)[C@H](Cc1ccncc1)NC(=O)[C@H](CC(=O)O)NC(=O)[C@H](CO)NC(=O)[C@@H](NC(=O)[C@](C)(Cc1ccccc1F)NC(=O)[C@@H](NC(=O)CNC(=O)[C@H](CCC(=O)O)NC(=O)C(C)(C)NC(=O)[C@@H](N)Cc1ccc(O)cc1)[C@@H](C)O)[C@@H](C)O)[C@@H](C)CC)C(=O)N[C@@H](C)C(=O)N[C@@H](CCC(N)=O)C(=O)NC(C)(C)C(=O)N[C@@H](CCC(=O)O)C(=O)N[C@@H](Cc1ccccc1)C(=O)N[C@H](C(=O)N[C@@H](CCCCNC(=O)[C@@H](N)CCCCNC(=O)CC[C@H](NC(=O)CCCCCCCCCCCCC(=O)O)C(=O)O)C(=O)N[C@@](C)(Cc1ccc(O)cc1)C(=O)N[C@@H](CC(C)C)C(=O)N[C@H](C(=O)N[C@@H](CCC(=O)O)C(=O)NCC(=O)NCC(=O)N[C@@H](CCCCNC(=O)[C@@H](N)CCCCNC(=O)CC[C@H](NC(=O)CCCCCCCCCCCCC(=O)O)C(=O)O)C(=O)N[C@@H](CO)C(=O)N[C@@H](CO)C(=O)NCC(=O)N[C@@H](C)C(=O)N1CCC[C@H]1C(=O)N1CCC[C@H]1C(=O)N1CCC[C@H]1C(=O)N[C@@H](CO)C(N)=O)[C@@H](C)CC)[C@@H](C)CC` [Example 197], the EC50 [1, 4] is reported as 2.06 nM, the Emax [1, 5] is reported as 84.5 ± 4.08% and the EC50 [1, 7] is reported as 0.0338 nM. It also gave an EC50 [2, 4] of 26.2 nM, an EC50 [2, 7] of 0.336 nM and an EC50 [3, 4] greater than 9950 nM. It also gave an EC50 [3, 7] greater than 9950 nM.

Molecule `CC[C@H](C)[C@H](NC(=O)[C@H](CCCN)NC(=O)[C@H](CC(=O)O)NC(=O)[C@H](CC(C)C)NC(=O)[C@](C)(CC(C)C)NC(=O)[C@@H](NC(=O)[C@H](CO)NC(=O)[C@H](Cc1ccncc1)NC(=O)[C@H](CC(=O)O)NC(=O)[C@H](CO)NC(=O)[C@@H](NC(=O)[C@](C)(Cc1ccccc1F)NC(=O)[C@@H](NC(=O)CNC(=O)[C@H](CCC(=O)O)NC(=O)C(C)(C)NC(=O)[C@@H](N)Cc1ccc(O)cc1)[C@@H](C)O)[C@@H](C)O)[C@@H](C)CC)C(=O)N[C@@H](C)C(=O)N[C@@H](CCC(N)=O)C(=O)NC(C)(C)C(=O)N[C@@H](CCC(=O)O)C(=O)N[C@@H](Cc1ccccc1)C(=O)N[C@H](C(=O)N[C@@H](CCCCNC(=O)[C@@H](N)CCCCNC(=O)[C@@H](N)CCCCNC(=O)CC[C@H](NC(=O)CCCCCCCCCCCCC(=O)O)C(=O)O)C(=O)N[C@@](C)(Cc1ccc(O)cc1)C(=O)N[C@@H](CC(C)C)C(=O)N[C@H](C(=O)N[C@@H](CCC(=O)O)C(=O)NCC(=O)NCC(=O)N[C@@H](CCCCNC(=O)[C@@H](N)CCCCNC(=O)[C@@H](N)CCCCNC(=O)CC[C@H](NC(=O)CCCCCCCCCCCCC(=O)O)C(=O)O)C(=O)N[C@@H](CO)C(=O)N[C@@H](CO)C(=O)NCC(=O)N[C@@H](C)C(=O)N1CCC[C@H]1C(=O)N1CCC[C@H]1C(=O)N1CCC[C@H]1C(=O)N[C@@H](CO)C(N)=O)[C@@H](C)CC)[C@@H](C)CC` [Example 198] has an Emax [1, 5] of 83.1 ± 3.45%, an Emax [1, 6] of 94 ± 1.17% and an EC50 [1, 7] of 0.0269 nM. The EC50 [2, 4] was 14.5 nM, the EC50 [2, 7] was 0.362 nM and the EC50 [3, 4] was greater than 9950 nM. It also gave an EC50 [3, 7] greater than 9950 nM.

`CC[C@H](C)[C@H](NC(=O)[C@H](CC(C)C)NC(=O)[C@](C)(Cc1ccc(O)cc1)NC(=O)[C@@H](CCC(=O)O)NC(=O)[C@@H](NC(=O)[C@H](Cc1ccccc1)NC(=O)[C@H](CCC(=O)O)NC(=O)C(C)(C)NC(=O)[C@H](CCC(N)=O)NC(=O)[C@H](C)NC(=O)[C@H](CCCCNC(=O)COCCOCCNC(=O)COCCOCCNC(=O)CC[C@H](NC(=O)CCCCCCCCCCCCC(=O)O)C(=O)O)NC(=O)[C@H](CCCN)NC(=O)[C@H](CC(=O)O)NC(=O)[C@H](CC(C)C)NC(=O)[C@](C)(CC(C)C)NC(=O)[C@@H](NC(=O)[C@H](CN)NC(=O)[C@H](Cc1ccncc1)NC(=O)[C@H](CC(=O)O)NC(=O)[C@H](CO)NC(=O)[C@@H](NC(=O)[C@](C)(Cc1ccccc1F)NC(=O)[C@@H](NC(=O)CNC(=O)[C@H](CCC(=O)O)NC(=O)C(C)(C)NC(=O)[C@@H](N)Cc1ccc(O)cc1)[C@@H](C)O)[C@@H](C)O)[C@@H](C)CC)[C@@H](C)CC)C(=O)N[C@@H](CCC(=O)O)C(=O)NCC(=O)NCC(=O)N[C@@H](CCCCNC(=O)COCCOCCNC(=O)COCCOCCNC(=O)CC[C@H](NC(=O)CCCCCCCCCCCCC(=O)O)C(=O)O)C(=O)N[C@@H](CO)C(=O)N[C@@H](CO)C(=O)NCC(=O)N[C@@H](C)C(=O)N1CCC[C@H]1C(=O)N1CCC[C@H]1C(=O)N1CCC[C@H]1C(=O)N[C@@H](CO)C(N)=O` [Example 199] showed an Emax [1, 5] of 77.1%, an Emax [1, 6] of 96.9 ± 1.48% and an EC50 [1, 7] of 0.0587 nM. The Emax [2, 8] was 100%, the Emax [2, 9] was 96.7 ± 6.69% and the EC50 [3, 4] was greater than 9950 nM. The EC50 [3, 7] was greater than 9950 nM.
